Reference: paper PMC6874683, “Pyrrothiogatain acts as an inhibitor of GATA family proteins and inhibits Th2 cell differentiation in vitro” (Scientific Reports, 2019)
Several values for one entry are separate records, joined by “and”; a condition that tells them apart may be missing. Equal values may be shown once.

Experiments:
GATA4 = biological target: T1, GATA4 (Homo sapiens, UniProt P43694); assay: AlphaScreen DNA-binding assay, GATA4; settings: pyrrothiogatain 0 to 200 µM
T1 construct: we tried to synthesize their full-length proteins using the cell-free system; made in house; host or cells: wheat cell-free protein synthesis system (WEPRO1240 kit)
Protocol: For the protein-DNA binding assay on a 384-well AlphaPlate (Perkin Elmer), 10 μL of bait protein mixture containing 1 µL FLAG-tagged protein in AlphaScreen Buffer (100 mM Tris-HCl (pH 8.0), 150 mM NaCl, 0.1% Tween 20, and 1 mg/mL BSA) and 5 µL biotinylated oligonucleotide (0–10 µM final concentration) in AlphaScreen Buffer were dispended into the AlphaPlate. Then, the plate was incubated at 26 °C for 1 h. After incubation, 10 μL of the detection mixture containing 0.4 µg/mL Anti-DYKDDDDK antibody (1E6, Wako), 0.1 μL streptavidin-conjugated AlphaScreen donor beads, and 0.1 μL protein A-conjugated AlphaScreen acceptor beads in AlphaScreen Buffer was mixed and incubated at 26 °C for 1 h, and then, the AlphaScreen signal was detected using an EnVision device with the AlphaScreen signal detection program (PerkinElmer).
For the AlphaScreen-based chemical library screening, we used a diverse set of 9,600 synthesized chemicals established by the Drug Discovery Initiative (The University of Tokyo, Tokyo, Japan). All chemical compounds (10 mM) were dissolved in DMSO, and were pre-dispensed into a 384-well Alphaplate (250 nL/well). […] The AlphaScreen signal was detected using an EnVision device with the AlphaScreen signal detection program (PerkinElmer). […]

Th2 cell differentiation = assay: Intracellular cytokine staining, total CD4+ T cells under IL-2 conditions; format: cell-based, mouse; settings: 30 µM, five days
Protocol: C57BL/6 mice were purchased from Clea (Clea Japan, Inc., Tokyo, Japan). Total CD4^+ T cells isolated from mouse spleen were prepared using a FITC anti-mouse CD4 antibody (Cat#100510, RM4–5, BioLegend) and anti-FITC-microbeads (Cat#130-097-050, Miltenyi Biotec). Naive CD4^+ T cells (CD44^low, CD62L^high) were prepared using a MojoSort Mouse CD4 T cell Isolation Kit (Cat#480033), BioLegend). Biotinylated anti-CD44 (Cat#103004, IM7) and anti-CD25 antibodies (Cat#102004, PC61) were purchased from BioLegend. CD4^+ T cells (7.5 × 10^5) were stimulated using immobilized anti-TCR-β mAb (3 µg/mL, H57–597, BioLegend) plus an anti-CD28 mAb (1.0 µg/mL, cat#40–0281, TONBO Biosciences) for 2 days, and then, the cells were further expanded under similar conditions for an additional 3 days. IL-2 conditions: IL-2 (10 ng/mL, Pepro Tech); Th2 conditions: IL-2 (10 ng/mL, Pepro Tech), IL-4 (1 ng/mL, Pepro Tech), and anti-IFN-γ mAb (2.5 µg/mL, cat#40–731, TONBO Biosciences). […]
The in vitro differentiated CD4^+ T cells were stimulated using an immobilized anti-TCR-β mAb (3 µg/ml, H57–597, BioLegend) for 6 h in the presence of monensin (2 µM). […] Flow cytometry was performed using a Gallios Flow Cytometer instrument (Beckman Coulter) and a FACS Caliber instrument (BD Biosciences) and the results were analysed using the FlowJo software program (Tree Star, Ashland, OR, USA). […]

T1 sequence (P43694 whole entry, species assumed): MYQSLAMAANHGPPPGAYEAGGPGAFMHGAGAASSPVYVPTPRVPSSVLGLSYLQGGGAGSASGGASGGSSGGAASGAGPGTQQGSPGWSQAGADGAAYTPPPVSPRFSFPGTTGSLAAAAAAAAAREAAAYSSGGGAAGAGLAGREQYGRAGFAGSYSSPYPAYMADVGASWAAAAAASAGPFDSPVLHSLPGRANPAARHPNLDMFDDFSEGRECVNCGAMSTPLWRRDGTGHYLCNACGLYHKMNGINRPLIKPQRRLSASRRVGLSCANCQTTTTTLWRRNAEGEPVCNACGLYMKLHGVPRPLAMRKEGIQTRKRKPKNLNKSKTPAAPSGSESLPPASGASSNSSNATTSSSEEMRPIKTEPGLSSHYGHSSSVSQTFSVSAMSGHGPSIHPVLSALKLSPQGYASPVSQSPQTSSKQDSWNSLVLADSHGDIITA

- IC50 (GATA4): ~50 µM and 48 µM
SMILES: Cc1ccc(C)n1-c1ccsc1C(=O)O [Pyrrothiogatain, 3-(2,5-dimethyl-1H-pyrrol-1-yl)thiophene-2-carboxylic acid]
- Generation of IL-4-, IL-5-, and IL-13-producing cells (Th2 cell differentiation): repressed
- Number of Th1 cells producing IFN-γ (Th2 cell differentiation): increased
